# Measured values reported in ChEMBL document CHEMBL3774358 (Eur J Med Chem, 2016).
# Experiments:
# [1] = molecular target: Actin nucleation-promoting factor WASL (Rattus norvegicus, UniProt O08816); assay: Inhibition of full-length rat N-WASP-induced Arp2/3 activation by fluorescence assay
# [2] = Inhibition of GFP-tagged Xenopus laevis kinesin-5 microtubule gliding velocity by fluorescence assay
# Actin nucleation-promoting factor WASL, sequence (O08816 whole entry): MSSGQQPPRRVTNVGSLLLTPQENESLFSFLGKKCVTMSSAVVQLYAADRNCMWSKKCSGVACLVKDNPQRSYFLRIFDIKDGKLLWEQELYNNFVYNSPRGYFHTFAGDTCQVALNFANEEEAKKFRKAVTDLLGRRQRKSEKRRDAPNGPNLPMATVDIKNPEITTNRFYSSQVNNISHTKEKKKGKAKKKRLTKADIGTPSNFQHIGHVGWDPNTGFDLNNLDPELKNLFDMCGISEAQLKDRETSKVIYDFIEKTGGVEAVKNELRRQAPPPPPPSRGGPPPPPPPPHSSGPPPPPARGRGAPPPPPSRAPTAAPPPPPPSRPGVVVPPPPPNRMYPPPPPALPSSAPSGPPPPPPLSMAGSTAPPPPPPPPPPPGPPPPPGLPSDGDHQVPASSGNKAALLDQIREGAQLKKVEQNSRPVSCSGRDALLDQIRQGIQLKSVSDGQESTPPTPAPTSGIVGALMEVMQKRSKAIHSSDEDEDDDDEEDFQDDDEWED
Structure (SMILES),IC50 [1] [µM],IC50 [2] [µM]
CN(C)C[C@@H](O)Cn1c2ccc(Br)cc2c2cc(Br)ccc21,3.44,
CCOC(=O)C1=C(C)NC(=S)NC1c1cccc(O)c1 (stereo not drawn) [MONASTROL],,14
CN(C)C[C@H](O)Cn1c2ccc(Br)cc2c2cc(Br)ccc21 [WISKOSTATIN],4.35,
